# Experimental data reported in patent publication US8133686B2 (Van Andel Research Institute, priority 2008, dated 2012).
# Where two headings read alike, the source gives them in different places.
# Columns and labels:
# [1] = system: SN12C xenografts; test: SN12C xenograft model, intermittent sunitinib dosing (3 weeks on, 3 weeks off)
# [2] = system: A-498 xenografts; test: A-498 xenograft model, intermittent sunitinib dosing (3 weeks on, 3 weeks off)
# [3] = system: RCC cell lines; test: cells; conditions: Homo sapiens
# [4] = system: HUVEC and HLMVEC cells; test: cells; conditions: Homo sapiens
# [5] = preliminary studies (data not shown)
# [6] = 40 mg/kg, 3-weeks-on and 3-weeks-off
smiles,measurement,setting,value
"CCN(CC)CCNC(=O)c1c(C)[nH]c(/C=C2\C(=O)Nc3ccc(F)cc32)c1C [SU11248, sunitinib]",treated SN12C xenograft mice showing phenotypic resistance,"[1]; 80 mg/kg, 3-weeks-on and 3-weeks-off",33%
same,minimal required dosage to induce stable disease,[1]; [5],80 mg/kg
same,treated A-498 xenograft mice showing phenotypic resistance,[2]; [6],38%
same,treated A-498 xenograft mice showing phenotypic resistance (resistant/treated),[2]; [6],13/34
same,minimal required dosage to induce stable disease,[2]; [5],40 mg/kg
same,IC50,"[3]; read-out: IC50 on proliferation of RCC cell lines, similar under both conditions: normal culture/complete medium and ligand-dependent/PDGF-only",4 to 10 µM
same,IC50,"[3]; read-out: IC50 on proliferation of RCC cells, complete medium",4 to 10 µM
same,IC50,"[3]; read-out: IC50 on proliferation of RCC cells, ligand-dependent condition",2 to 6 µM
same,IC50,[4]; read-out: IC50 on proliferation of endothelial cell lines,~0.01 µM
same,IC50,[4]; read-out: IC50 on proliferation of endothelial cells,~6 µM
